Experimental data: the NIST ThermoML archive (doi:10.1016/j.jct.2018.09.027)

Settings: Crystal; for vapor or sublimation pressure: Calculated from knudsen effusion weight loss

O=C(O)c1cc(O)c(O)c(O)c1 [3,4,5-trihydroxybenzoic acid]
Settings | Normal melting temperature [°C] | vapor or sublimation pressure [kPa]
432.88 K | – | 9.61e-05
434.44 K | – | 0.0001197
436.46 K | – | 0.0001349
438.62 K | – | 0.0001688
440.5 K | – | 0.0001779
442.58 K | – | 0.0002341
444.57 K | – | 0.000257
446.54 K | – | 0.000313
448.7 K | – | 0.0003927
450.78 K | – | 0.0004674
452.6 K | – | 0.0005635
454.63 K | – | 0.0006284
456.47 K | – | 0.0008057
458.78 K | – | 0.0009376
DTA | 263.5 | –
